Test results taken from US7321027B2, “Small technetium-99m and rhenium labeled agents and methods for imaging tumors” (President and Fellows of Harvard College, priority 2000, dated 2008).

How the values were obtained:
[1] = Determination of lipophilicity and pKa values by HPLC; type: physicochemical; settings: HPLC method
Experimental: The physicochemical parameters of the rhenium complexes, i.e. lipophilicity log P, log D(pH 7.4), and pKa (Table 2) were determined using HPLC methods (Braumann, T.; Grimme, L. H. Determination of Hydrophobic Parameters for Pyridazinone Herbicides by Liquid-Liquid Partition and Reversed-Phase High-Performance Liquid Chromatography. J. Chromatogr. 1981, 206, 7-15; Stytli, C.; Theobald, A. E. Determination of Ionization Constants of Radiopharmaceuticals in Mixed Solvents by HPLC. Appl. Radiat. Isot., 1987, 38, 701-708; Johannsen, B.; Scheunemann, M.; Spies, H.; Brust, P.; Wober, J.; Syhre, R.; Pietzsch, H.-J. Technetium(V) and Rhenium(V) Complexes for 5-HT2A Serotonin Receptor Binding: Structure-Affinity Considerations. Nucl. Med. Biol., 1996, 23, 429-438; and Johannsen, B.; Berger, R.; Brust, P.; Pietzsch, H.-J; Scheunemann, M.; Seifert, S.; Spies, H.; Syhre, R. Structural Modification of Receptor-Binding Technetium-99m Complexes in Order to Improve Brain Uptake. Eur. J. Nucl. Med. 1997, 24, 316-319). […] Since log D(pH 7.4) is a composite measure of log P and pKa, the log D(PH 7.4) of Re-Compound B (1.9) is also higher than that of Re-Compound A (1.1). […] With pKa values >9 for complexes Re-Compound C and Re-Compound D, the resulting low log D(PH 7.4) values of −0.5 (Re-Compound C) and 0.7 (Re-Compound D) are not surprising, since the complexes would exist in a protonated form at pH 7.4.
Determination of Lipophilicity and pKa Values. The lipophilicity and pKa values of all complexes were determined using HPLC methods described previously (Stylli, C.; Theobald, A. E. Determination of Ionization Constants of 4 Radiopharmaceuticals in Mixed Solvents by HPLC. Appl. Radiat. Isot., 1987, 38, 701-708; Johannsen, B.; Scheunemann, M.; Spies, H.; Brust, P.; Wober, J.; Syhre, R.; Pietzsch, H.-J. Technetium(V) and Rhenium(V) Complexes for 5-HT2A Serotonin Receptor Binding: Structure-Affinity Considerations. Nucl. Med. Biol., 1996, 23, 429-438; and Johannsen, B.; Berger, R.; Brust, P.; Pietzsch, H.-J.; Scheunemann, M.; Seifert, S.; Spies, H.; Syhre, R. Structural Modification of Receptor-Binding Technetium-99m Complexes in Order to Improve Brain Uptake. Eur. J. Nucl. Med. 1997, 24, 316-319). […] The mobile phase was acetonitrile:phosphate buffer (0.01 M), 3:1, v/v, with the aqueous buffer adjusted to the desired pH between 3 and 11. The capacity factor (k′) was calculated for each determination (Braumann, T.; Grimme, L. H. Determination of Hydrophobic Parameters for Pyridazinone Herbicides by Liquid-Liquid Partition and Reversed-Phase High-Performance Liquid Chromatography. J. Chromatogr. 1981, 206, 7-15; El Tayer, N.; van der Waterbeemd, H.; Testa, B. Lipophilicity Measurements of Protonated Basic Compounds by Reversed-Phase High-Performance Liquid Chromatography. II. Procedure for the Determination of a Lipophilic Index Measured by Reversed-Phase High Performance Liquid Chromatography. J. Chromatogr. 1985, 320, 305-312; and Minick, D. J.; Frenz, J. H.; Patrick, M. A.; Brent, D. A. A Comprehensive Method for Determining Hydrophobicity Constants by Reversed-Phase High-Performance Liquid Chromatography. J. Med. Chem., 1988, 31, 1923-1933) and the partition coefficient at a given pH (D or log D) were calculated from the equation: log D=a log k′+b where the parameters a and b are predetermined using standard amines. The fitted points of inflection from the sigmoidal DHPLC/pH profiles permit calculation of the pKHPLC(Stylli, C.; Theobald, A. E. Determination of Ionization Constants of Radiopharmaceuticals in Mixed Solvents by HPLC. Appl. Radiat. Isot., 1987, 38, 701-708). The aqueous ionization constants pKa were calculated from the pKHPLC values after correction with a predetermined correction factor obtained using standard amine compounds. Log P values of the neutral complexes were estimated from the respective upper plateau of the sigmoidal log D/pH curve in the alkaline range.

[2] = tested on: B16/F0 cells; test: Tumor-cell uptake in the presence of DTG; type: cell-based, murine; settings: 37° C.; for IC50: read-out: DTG concentration at 50% maximal inhibition of complex uptake, intact B16/F0 cells, DTG as the inhibitor; for lower tumor-cell uptake after pre-incubation with DTG: DTG 90 μM, 30 min prior
Excerpt: J. Labelled Compd. Radiopharm. 1994, 35, 242-244; Vilner, B. J.; John, C. S.; Bowen, W. D. Sigma-I and Sigma-2 Receptors Are Expressed in a Wide Variety of Human and Rodent Tumor Cell Lines. Cancer Res. 1995, 55, 408-413; and John, C. S.; Vilner, B. J.; Gulden, M. E.; Efange, S. M. N.; Langason, R. B.; Moody, T. W.; Bowen, W. D. Synthesis and Pharmacological Characterization of 4-[^125I]-N-(N-Benzylpiperidin-4-yl)-4-iodobenzamide: A High Affinity σ Receptor Ligand for Potential Imaging of Breast Cancer. […] Pre-incubation of the tumor cells with DTG (90 μM), 30 min prior to the uptake experiments with the ^99mTc-complexes, yields a lower tumor-cell uptake for complexes Tc-(Compound A) (29% less), Tc-(Compound C) (33% less), and Tc-(Compound D) (32% less) at 37° C. (FIG. 4). Additional dose-response experiments conducted with intact B16/F0 cells at 37° C. with Tc-(Compound C) and DTG as the inhibitor (FIG. 3) show a DTG concentration-dependent decrease in the uptake of the complex.
The effect of the inhibitor DTG on cell uptake of these complexes was studied by addition of the inhibitor at various concentrations to the cell suspension 30 min prior to addition of the ^99mTc-complexes. Fresh DTG stock solutions were made by dissolving DTG (3.0 mg, 12.5 μmol) in 0.38 mL PBS and 0.12 mL hydrochloric acid (0.1 N) and subjecting the mixture to ultrasound until a clear solution was obtained, followed by the addition of 0.50 mL FBS to produce a neutral solution at pH 7.4. The stock solutions were diluted by an appropriate amount of S-MEM, and aliquots between 5 μL and 25 μL were added to the cell suspension such that the final concentration of DTG was between 0.02 μM and 120 μM in a total cell suspension volume of 350 μL.

[3] = tested on: B16/F0 murine melanoma cells; test: In-vitro tumor-cell uptake, melanoma cells; type: cell-based; settings: for decrease in cell uptake, incubation temperature from 37° C. to 4° C.: 4° C. vs 37° C.; for maximal cell uptake: 37° C., B16/F0 cell line
Experimental: (§1) In-Vitro Tumor-Uptake Studies. Tumor-cell uptake studies in B16/F0 murine melanoma cells were performed with complexes Tc-(Compound A-D and H-M) at 37° C. and 4° C. Additionally, tumor-cell uptake of complex Tc-(Compound A) was investigated in another rapidly dividing MCF-7 human breast cancer cell line.
In-Vitro Cell Studies. Murine B16/F0 melanoma cells and human MCF-7 breast cancer cells were obtained from American Type Culture Collection, Manassas Va., (ATCC) and were grown in T-175 flasks in 14 mL Dulbecco's Modified Eagle Medium (D-MEM; Gibco, Life Technology, Gaithersburg, Md.) containing 4500 mg/L D-glucose, L-glutamine, and pyridoxine hydrochloride, 110 mg/L sodium pyruvate, 10% fetal bovine serum (FBS), 0.2% gentamicin and 0.5% penicillin-streptomycin solution. All cells were harvested from cell culture flasks by trypsinization with 1 mL trypsin-EDTA solution (0.25% trypsin, 1 mM EDTA×4 Na) (Gibco). After being washed with 12 mL Dulbecco's Phosphate-Buffered Saline (PBS) (Gibco), pH 7.2 (Ca^2+- and Mg^2+-free; g/L KCl, 0.20; KH2PO4, 0.20; NaCl, 8.00; Na2HPO4, 1.15), the cells were counted and resuspended in 8 mL S-MEM (Gibco) (Ca^2+ free, with reduced Mg^2+ content) and stored at 4° C. until use.
For in-vitro tumor-cell accumulation studies, 5×10^6 cells in polypropylene test tubes were incubated at 37° C. or 4° C., with intermittent agitation with 1-2 μCi (5 μL) ^99mTc-complex Tc-(Compound A-D) in a total volume of 350 μL S-MEM. At appropriate time intervals the tubes were vortexed and 8-μL samples were layered on 350 μL cold FBS in a 400-μL Eppendorf microcentrifuge tube. After centrifugation at 15,000 rpm for 2 min, the tubes were frozen in a dry ice-acetone bath. While still frozen, the bottom tip of the microcentrifuge tube containing the cell pellet was cut and placed in a counting tube. The remaining portion of the tube with the supernatant was placed in a separate counting tube. Both fractions were counted for radioactivity in a γ-counter (WALLAC, 1480 WIZARD 3″™). The amount of supernatant in the cell pellet was determined to be <1% in separate experiments. The percentage cell uptake of the ^99mTc-complex was calculated as: % uptake=[cpm(pellet)]/[cpm(pellet)+cpm(supernatant)]×100

[4] = tested on: MCF-7 human breast cancer cell line; test: In-vitro tumor-cell uptake, breast cancer cells; type: cell-based; settings: 37° C., MCF-7 cell line
Experimental: as §1
In-Vitro Cell Studies. […] After being washed with 12 mL Dulbecco's Phosphate-Buffered Saline (PBS) (Gibco), pH 7.2 (Ca^2+- and Mg^2+-free; g/L KCl, 0.20; KH2PO4, 0.20; NaCl, 8.00; Na2HPO4, 1.15), the cells were counted and resuspended in 8 mL S-MEM (Gibco) (Ca^2+ free, with reduced Mg^2+ content) and stored at 4° C. until use.
For in-vitro tumor-cell accumulation studies, 5×10^6 cells in polypropylene test tubes were incubated at 37° C. or 4° C., with intermittent agitation with 1-2 μCi (5 μL) ^99mTc-complex Tc-(Compound A-D) in a total volume of 350 μL S-MEM. […] Both fractions were counted for radioactivity in a γ-counter (WALLAC, 1480 WIZARD 3″™). The amount of supernatant in the cell pellet was determined to be <1% in separate experiments. The percentage cell uptake of the ^99mTc-complex was calculated as: % uptake=[cpm(pellet)]/[cpm(pellet)+cpm(supernatant)]×100

[5] = tested on: B16/F0 murine melanoma; test: In-vivo tumor uptake and biodistribution; design: species or system C57B16 mice; settings: mouse, in vivo
Experimental: In-Vivo Tumor Uptake. To study the tumor uptake of ^99mTc-complexes, Tc-(Compound A-D and J-K), in vivo, biodistribution experiments at 1 h and 6 h after their administration were carried out in C57B16 mice with palpable B16 melanoma nodules. The biodistribution data including melanoma/nontumor (M/NT) ratios for selected organs are summarized in Table 4 and 5 as percentage injected dose per gram ([…]).
Animal Studies. All animal experiments were performed in compliance with the Principles of Laboratory Animal Care (NIH publication #85-23, revised 1985). Biodistribution studies and tumor-uptake measurements were performed in C57B16 mice (15 to 20 g) bearing the B16/F0 murine melanoma on the hind limb. See for example the studies described in, which are hereby incorporated by reference, Brandau, W.; Niehoff, T.; Pulawski, P.; Jonas, M.; Dutschka, K.; Sciuk, J.; Coenen, H. H.; Schober, O. Structure Distribution Relationship of Iodine-123-Iodobenzamides as Tracers for the Detection of Melanotic Melanoma. J. Nucl. Med. 1996, 37, 1865-1871; Mohanmmed, A.; Nicholl, C.; Titsch, U.; Eisenhut, M. Radiojodinated N-(Alkylaminoalkyl)-Substituted 4-Methoxy-, 4-Hydroxy-, and 4-Aminobenzamides: Biological Investigations for the Improvement of Melanoma-Imaging Agents. Nucl. Med. Biol. 1997, 24, 373-380; Titsch, U.; Mohammed, A.; Wagner, S.; Oberdorfer, F.; Eisenhut, M. Syntheses of N-(2-Diethylaminoethyl)benzamides Suitable for ^99mTc Complexation. J. Labelled Compd. Radiopharm. 1997, 40, 416-418; Dittmann, H.; Coenen, H. H.; Zölzer, F.; Dutschka, K.; Brandau, W.; Streffer, C. In Vitro Studies on the Cellular Uptake of Melanoma Imaging Aminoalkyl-iodobenzamide Derivatives (ABA). Nucl. Med. Biol. 1999, 26, 51-56; and Michelot, J. M.; Moreau, M. F. C.; Veyre, A. J.; Bonafous, J. F.; Bacin, F. J.; Madelmont, J. C.; Bussiere, F.; Souteyrand, P. A.; Mauclaire, L. P.; Chossat, F. M.; Papon, J. M.; Labarre, P. G.; Kauffmann, Ph.; Plagne, R. J. Phase II Scintigraphic Clinical Trial of Malignant Melanoma and Metastases with Iodine-123-N-(2-Diethylaminoethyl 4-Iodobenzamide). J. Nucl. Med. 1993, 34, 1260-1266. The tumor cells (B16/F0), obtained from ATCC, were washed with PBS and transplanted subcutaneously on the left hind flank by an inoculation of 0.5×10^6 cells (0.1 mL). Ten to 14 days later the animals developed palpable tumor nodules 3 to 5 mm in diameter. The biodistribution studies were carried out by tail-vein injection of 25 to 30 μCi (0.05 to 0.1 mL) of the ^99mTc-labeled complexes Tc-(Compound A-D, H, J, K or M). At the designated time after tail-vein administration, the animals were weighed and sacrificed. The organs and tumors were harvested and, when appropriate, blotted dry, weighed, and counted in a gamma counter along with technetium-99m standards of the injected dose. The results are expressed as % ID/g tissue (Table 4 and 5)

CCN(CC)CCN1CC[S][Re]2(=[O])[S]CC[N]2C(=O)C1 (centres unmarked) [Re-Compound A, [ReOAADT]-C2—NEt2]
log P [1]: 1.6 | pKa [1]: 7.7 | log D(pH 7.4) [1]: 1.1

CCCCN(CCCC)CCN1CC[S][Re]2(=[O])[S]CC[N]2C(=O)C1 (centres unmarked) [Re-Compound B, [ReOAADT]-C2—NBu2]
log P [1]: 3.3 | pKa [1]: 7.7 | log D(pH 7.4) [1]: 1.9

CCCCN(CCCC)CCCN1CC[S][Re]2(=[O])[S]CC[N]2C(=O)C1 (centres unmarked) [Re-Compound D, [ReOAADT]-C3—NBu2]
log D(pH 7.4) [1]: 0.7

CCN(CC)CCN1CC[S][Tc]2(=[O])[S]CC[N]2C(=O)C1 (centres unmarked) [Tc-(Compound A)]
IC50 [2]: 21 µM

CCN(CC)CCCN1CC[S][99Tc]2(=[O])[S]CC[N]2C(=O)C1 (centres unmarked) [Tc-(Compound C)]
decrease in cell uptake, incubation temperature from 37° C. to 4° C. [3]: 77% | maximal cell uptake [3]: 62% | maximum cell uptake [4]: 17% | lower tumor-cell uptake after pre-incubation with DTG [2]: 33% | mel/blood ratio [5]: 19 | mel/lung ratio [5]: 12.7 | mel/spleen ratio [5]: 19

CCN(CC)CCCN1CC[S][Tc]2(=[O])[S]CC[N]2C(=O)C1 (centres unmarked) [Tc-(Compound C)]
IC50 [2]: 49 µM

CCCCN(CCCC)CCCN1CC[S][99Tc]2(=[O])[S]CC[N]2C(=O)C1 (centres unmarked) [Tc-(Compound D)]
decrease in cell uptake, incubation temperature from 37° C. to 4° C. [3]: 23% | maximal cell uptake [3]: 68% | lower tumor-cell uptake after pre-incubation with DTG [2]: 32%

CCCCN(CCCC)CCCN1CC[S][Tc]2(=[O])[S]CC[N]2C(=O)C1 (centres unmarked) [Tc-(Compound D)]
IC50 [2]: 52 µM
